Laboratory results taken from PubChem BioAssay (NCI).
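Dose response: 5 concentrations. Exposure: 48 h. Format: 96-well plates. Endpoint: linear interpolation; highest concentration if not reached. TGI marks complete inhibition of growth.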

How the values were obtained:
Assay in all cases: inhibition of tumour cell growth, NCI panel, 48 h
COLO 205 colon = system: COLO 205 colon
IGROV1 ovarian = system: IGROV1 ovarian
UO-31 renal = system: UO-31 renal
NCI-H23 lung = system: NCI-H23 lung
SR leukemia = system: SR leukemia
OVCAR-4 ovarian = system: OVCAR-4 ovarian
SN12C renal = system: SN12C renal
HCT-116 colon = system: HCT-116 colon
MCF7 breast = system: MCF7 breast
EKVX NSCLC = system: EKVX NSCLC
ACHN renal = system: ACHN renal
MALME-3M melanoma = system: MALME-3M melanoma
NCI-H460 lung = system: NCI-H460 lung
NCI-H522 lung = system: NCI-H522 lung
M14 melanoma = system: M14 melanoma
SK-MEL-5 melanoma = system: SK-MEL-5 melanoma
KM12 colon = system: KM12 colon
LOX IMVI melanoma = system: LOX IMVI melanoma

Measured: TGI

COc1ccccc1CC1(O)OC(=O)c2ccccc21 (stereo not drawn)
> 100 µM: COLO 205 colon | IGROV1 ovarian | UO-31 renal | NCI-H23 lung | SR leukemia | OVCAR-4 ovarian | SN12C renal | HCT-116 colon | MCF7 breast | EKVX NSCLC | ACHN renal | MALME-3M melanoma | NCI-H460 lung | NCI-H522 lung | M14 melanoma | SK-MEL-5 melanoma | KM12 colon | LOX IMVI melanoma
